Test results reported in paper PMC8847575, “HSL1 and BAM1/2 impact epidermal cell development by sensing distinct signaling peptides” (Nature Communications, 2022).
Ends that are not written are not given here.

What was measured:
HSL1-SERK1 complex = target: T1, HSL1-SERK1 complex (Arabidopsis thaliana, UniProt Q94AG2+Q9SGP2); test: ITC, SERK1 titrated into HSL1 plus peptide (ternary complex formation); settings: SERK1 (syringe) into HSL1 + indicated peptide (cell), 25 °C, 20 mM sodium citrate pH 5.0, 150 mM NaCl, N fitted to 1, mean ± SD of at least two independent experiments, n.d = no binding detected
T1 construct: HSL1 (residues 17-618, AT1G28440); made in house; host or cells: Trichoplusia ni Tnao38 insect cells (baculovirus)
T1 sequence (Q9SGP2 17-618): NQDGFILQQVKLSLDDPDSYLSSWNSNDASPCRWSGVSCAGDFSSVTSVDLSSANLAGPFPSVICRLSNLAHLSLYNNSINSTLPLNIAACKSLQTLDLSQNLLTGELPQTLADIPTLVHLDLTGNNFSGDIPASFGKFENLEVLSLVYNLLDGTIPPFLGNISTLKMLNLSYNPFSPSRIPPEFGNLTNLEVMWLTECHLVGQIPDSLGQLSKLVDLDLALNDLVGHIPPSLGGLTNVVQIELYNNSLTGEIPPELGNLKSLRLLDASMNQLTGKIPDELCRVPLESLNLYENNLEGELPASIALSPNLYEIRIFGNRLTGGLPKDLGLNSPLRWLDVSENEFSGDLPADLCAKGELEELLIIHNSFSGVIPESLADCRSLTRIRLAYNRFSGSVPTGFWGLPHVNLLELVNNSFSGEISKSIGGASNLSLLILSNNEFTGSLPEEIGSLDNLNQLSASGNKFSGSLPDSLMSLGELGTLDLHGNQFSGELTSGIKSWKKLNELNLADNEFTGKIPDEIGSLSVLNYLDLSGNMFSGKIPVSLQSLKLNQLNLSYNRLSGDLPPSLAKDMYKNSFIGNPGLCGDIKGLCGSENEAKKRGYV
T1 sequence (Q94AG2 24-213 partner limits assumed): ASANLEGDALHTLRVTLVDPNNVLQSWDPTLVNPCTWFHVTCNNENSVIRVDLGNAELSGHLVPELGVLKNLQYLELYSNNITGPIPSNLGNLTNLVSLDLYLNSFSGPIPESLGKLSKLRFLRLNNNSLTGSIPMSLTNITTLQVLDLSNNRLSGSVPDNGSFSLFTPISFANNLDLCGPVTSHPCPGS
Source text: (§1) All genes used for protein expression in Trichoplusia ni Tnao38 cells[46] were codon optimized and cloned into a modified pFastBac vector (Geneva Biotech) providing an azurocidin[47] or Drosophila BIP signal peptide, a TEV (tobacco etch virus protease) cleavage site and a Strep-9xHis tandem affinity tag at their carboxy terminus. The genes used are coding for the Arabidopsis ectodomains of HSL1 (residues 17-618, AT1G28440), HAE (residues 20-620, AT4G28490) SERK1 (residues 24–213, AT1G71830), and BAM1 (residues 20–637, AT5G65700). To perform Grating-coupled interferometry (GCI) experiments, HSL1 was fused to a non-cleavable Avi-tag[49],[50]. […] After every expression round, secretion of our proteins was detected using an anti-His-HRP conjugated antibody from Roche (Ref:11965085001) in a 1:2000 dilution. […] Proteins were analyzed for purity and structural integrity by SDS-PAGE.
(§2) Experiments were performed at 25 °C using a MicroCal PEAQ-ITC (Malvern Instruments) with a 200 µL standard cell and a 40 μL titration syringe. […] Molar protein concentrations for HSL1, BAM1, and SERK1 were calculated using their molar extinction coefficient and a molecular weight of 74,896 and 27,551 Da, respectively as previously determined. […] Experiments were done in duplicates or triplicates, otherwise specified, and data were analyzed using the MicroCal PEAQ-ITC Analysis Software provided by the manufacturer. […]

HSL1 ectodomain = target: T2, HSL1 ectodomain (Arabidopsis thaliana, UniProt Q9SGP2); test: ITC, peptide titrated into isolated HSL1 ectodomain; settings: peptide (syringe) into HSL1 ectodomain (cell), 25 °C, 20 mM sodium citrate pH 5.0, 150 mM NaCl, N fitted to 1, mean ± SD of at least two independent experiments, n.d = no binding detected
T2 construct: HSL1 (residues 17-618, AT1G28440); azurocidin or Drosophila BIP signal peptide (secretion signal) (N); made in house; host or cells: Trichoplusia ni Tnao38 insect cells (baculovirus)
T2 sequence (Q9SGP2 17-618): T1 sequence (Q9SGP2 17-618)
Source text: as §1, §2

- Kd (dissociation constant), SERK1 vs HSL1 + peptide (HSL1-SERK1 complex): no biding was detected
- Kd (dissociation constant), peptide vs HSL1 (HSL1 ectodomain): could not detect binding
Sequence: RLVPSGPNPLHH [CLE13]
